14 compounds from patent US5580895A, “1,5-benzodiazepine derivatives” (Glaxo SpA, priority 1992, dated 1996) can be followed below.

A value given as a limit tells only on which side of the number the result lay.

Data set [1] has as its target T1, CCK-A receptor (Cavia porcellus, UniProt Q63931).
T1 construct: guinea pig isolated ileum longitudinal muscle myenteric plexus preparation; from tissue; host or cells: guinea pig isolated ileum longitudinal muscle-myenteric plexus
T1 sequence (Q63931 1-430): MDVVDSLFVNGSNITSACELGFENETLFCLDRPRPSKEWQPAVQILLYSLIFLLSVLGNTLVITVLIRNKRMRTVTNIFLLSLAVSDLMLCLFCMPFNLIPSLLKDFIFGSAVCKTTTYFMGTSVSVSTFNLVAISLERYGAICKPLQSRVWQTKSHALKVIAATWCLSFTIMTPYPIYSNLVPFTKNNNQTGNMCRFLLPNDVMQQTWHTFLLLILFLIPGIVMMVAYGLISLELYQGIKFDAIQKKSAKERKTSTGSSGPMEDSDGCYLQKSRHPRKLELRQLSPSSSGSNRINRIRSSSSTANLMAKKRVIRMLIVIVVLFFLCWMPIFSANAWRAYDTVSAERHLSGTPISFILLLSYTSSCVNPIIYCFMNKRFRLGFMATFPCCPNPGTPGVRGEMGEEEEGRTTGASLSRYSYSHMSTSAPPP
Put plainly: CCK-A antagonist activity, guinea pig isolated ileum longitudinal muscle myenteric plexus (inhibition of contractile activity of CCK-8). It is filed as cell-based. On the procedure: The preparation and use of guinea-pig isolated ileum longitudinal muscle-myenteric plexus has been described by K-H Buchheit et al in Nauyn-Schmeideberg's Arch. Pharmacol, (1985), 329, p36-41 and by V. L. Lucaites et al (1991) in J. Pharmacol. Exp. Ther., 256, 695-703.
The CCK-A antagonist and CCK-B antagonist activities of compounds of the invention were determined using the guinea pig isolated ileum longitudinal muscle myenteric plexus preparation. The compounds were tested using the procedure G Dal
Forno et al J. Pharmacol. Exp & Ther. 261-1056-1063 1992 and the pKb value for each compound was determined.

For data set [2], the target named is CCK-A receptor. Put plainly: CCK receptor binding, CCK-A (Pancreas Assay). As to the method: (§1) The greater affinity of the compounds of the invention for the CCK-B receptor over the CCK-A receptor has also been established using the CCK receptor binding assays described by G. Dal Fornos et al., J. Pharmcol. Exp & Ther. 261, 1056-1063, 1992.
(§2) The binding affinity of the compounds of the invention for the CCK-A receptor (Pancreas Assay) and CCK-B receptor (guinea pig cortex assay) was determined using the procedure of G Dal Forno et al J. Pharmacol. Exp & Ther. 261-1056-1063. The pKi values determined with representative compounds of invention were as follows: […]

Data set [3] deals with T2, CCK-B receptor (Cavia porcellus, UniProt H0VZC5).
T2 construct: CCK-B receptor (guinea pig cortex assay); from tissue; host or cells: guinea pig cortex
Put plainly: CCK receptor binding, CCK-B (guinea pig cortex assay). On the procedure: as §1, §2

Data set [4] deals with mice and rats. Nature of the data set: Toxicity / untoward effects on oral administration to mice and rats. It is filed as in vivo. The note with it: orally to mice and rats at doses exhibiting anxiolytic activity. An excerpt:
(§3) The compounds of the invention are essentially non-toxic and therapeutically useful doses.

In data set [5] the test system is mice and rats. Nature of the data set: Anxiolytic activity, oral, mice and rats. The settings on record: orally to mice and rats. It counts as in vivo.
From the text: as §3

T2 sequence (H0VZC5 entry or part of it): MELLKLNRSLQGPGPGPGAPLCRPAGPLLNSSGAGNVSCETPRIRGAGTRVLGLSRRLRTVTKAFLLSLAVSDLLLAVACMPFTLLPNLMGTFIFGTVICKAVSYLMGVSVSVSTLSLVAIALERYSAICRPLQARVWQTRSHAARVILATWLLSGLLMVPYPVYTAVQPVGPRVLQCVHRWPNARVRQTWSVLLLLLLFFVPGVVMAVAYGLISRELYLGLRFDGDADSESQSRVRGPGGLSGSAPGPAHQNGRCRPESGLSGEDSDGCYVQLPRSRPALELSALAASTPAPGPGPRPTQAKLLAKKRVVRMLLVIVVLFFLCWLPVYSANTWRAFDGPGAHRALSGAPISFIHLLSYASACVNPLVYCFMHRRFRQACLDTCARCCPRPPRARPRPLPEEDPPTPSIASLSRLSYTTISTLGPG

In the case of `CC(C)CCN1C(=O)C(NC(=O)Nc2ccccc2)C(=O)N(c2ccccc2)c2ccccc21` (single isomer, unassigned; (+)) [Example 26, (+)-N-[2,4-Dioxo-5-phenyl-1-(3-methylbut-1-yl)-2,3,4,5-tetrahydro-1H-1,5-benzodiazepin-3-yl]-N'-phenylurea], in data set [1] (read-out: pKb CCK-A (converted)), the Kb was at least 3160 nM. `CC(C)CCN1C(=O)C(NC(=O)Nc2cccc(N(C)C)c2)C(=O)N(c2ccccc2F)c2ccccc21` (single isomer, unassigned; (+)) [Example 27, (+)-N-[2,4-Dioxo-5-(2-fluorophenyl)-1-(3-methylbut-1-yl)-2,3,4,5-tetrahydro-1H-1,5-benzodiazepin-3-yl]-N'-[3-(N,N-dimethylamino)phenyl]urea]: the “pKi CCK-A” value in data set [2] was determined as 6.83. The same compound showed an inhibition constant (Ki) in data set [3] of 0.288 nM. `O=C(Nc1ccccc1)NC1C(=O)N(CC23CC4CC(CC(C4)C2)C3)c2ccccc2N(c2ccccc2)C1=O` (single isomer, unassigned; (+)) [Example 45, (+)-N-[1-(Adamantanmethyl)-2,4-dioxo-5-phenyl-2,3,4,5-tetrahydro-1H-1,5-benzodiazepin-3-yl]-N'-phenylurea]: the “pKi CCK-A” value in data set [2] was determined as 5.95. The untoward effects entry in data set [4] is on record as “no untoward effects were observed”. Also, in data set [5], the anxiolytic activity entry is listed as “exhibits anxiolytic activity”. With `CC(C)CCN1C(=O)C(NC(=O)Nc2cccc(N(C)C)c2)C(=O)N(c2ccccc2F)c2ccccc21` (centres unmarked) [Example 4, N-[2,4-dioxo-5-(2-fluorophenyl)-1-(3-methylbut-1-yl)-2,3,4,5-tetrahydro-1H-1,5-benzodiazepin-3-yl]-N'-(3-dimethylamino)phenylurea], in data set [2], the “pKi CCK-A” value came out at 6.9. As to `CC(C)(C)C(O)CN1C(=O)C(NC(=O)Nc2ccccc2)C(=O)N(c2ccccc2F)c2ccccc21` (centres unmarked) [Example 7A, N-[1-(3,3-Dimethyl-2-hydroxybut-1-yl)-2,4-dioxo-5-(2-fluorophenyl)-2,3,4,5-tetrahydro-1H-1,5-benzodiazepin-3-yl]-N'-phenylurea], the “pKi CCK-A” value in data set [2] is on record as 6.33. On the same count and under the same terms, as for `CC(C)CCN1C(=O)C(NC(=O)Nc2ccccc2)C(=O)N(c2ccccc2)c2cc(Cl)ccc21` (centres unmarked) [Example 9, N-[7-Chloro-2,4-dioxo-1-(3-methylbut-1-yl)-5-phenyl-2,3,4,5-tetrahydro-1H-1,5-benzodiazepin-3-yl]-N'-phenylurea], the figure is 6.02; as for `CC(C)CCN1C(=O)C(NC(=O)Nc2ccccc2)C(=O)N(c2ccccc2)c2cc(Cl)c(Cl)cc21` (centres unmarked) [Example 11, N-[7,8-dichloro-2,4-Dioxo-1-(3-methylbut-1-yl)-5-phenyl-2,3,4,5-tetrahydro-1H-1,5-benzodiazepin-3-yl]-N'-phenylurea], 5.80; as for `O=C(Nc1ccccc1)NC1C(=O)N(CC23CC4CC(CC(C4)C2)C3)c2ccccc2N(c2ccccc2)C1=O` (centres unmarked) [Example 14, N-[1-(1-Adamantyl)methyl-2,4-dioxo-5-phenyl-2,3,4,5-tetrahydro-1H-1,5-benzodiazepin-3-yl]-N'-phenylurea], 6.15. On the same count and under the same terms, as for `CC(C)(C)CCN1C(=O)C(NC(=O)Nc2ccccc2)C(=O)N(c2ccccc2)c2ccccc21` (centres unmarked) [Example 16, N-[1-(3,3-Dimethylbutyl)-2,4-dioxo-5-phenyl-2,3,4,5-tetrahydro-1H-1,5-benzodiazepin-3-yl]-N'-phenylurea], the figure is 6.95.

For the compound `CC(C)CCN1C(=O)C(NC(=O)Nc2ccccc2)C(=O)N(c2ccccc2)c2ccccc21` (centres unmarked) [Example 25, N-[2,4-Dioxo-5-phenyl-1-(3-methylbut-1-yl)-2,3,4,5-tetrahydro-1H-1,5-benzodiazepin-3-yl]-N'-phenylurea], in data set [1], the “pKb CCK-A” value is below 6.0. Turning to `CN(C)c1ccc(NC(=O)NC2C(=O)N(CCC3CCCC3)c3ccccc3N(c3ccccc3F)C2=O)cc1` (centres unmarked) [Example 30, N-[1-(2-cyclopentyl-ethyl)-2,4-dioxo-5-(2-fluorophenyl)-2,3,4,5-tetrahydro-1H-1,5-benzodiazepin-3-yl]-N'-[4-(dimethylamino)phenyl]urea], the “pKi CCK-A” value in data set [2] is given as 7.00. In the case of `O=C(Nc1ccccc1)NC1C(=O)N(CC2CC3C=CC2C3)c2ccccc2N(c2ccccc2)C1=O` (centres unmarked) [Example 31, N-[1-(Bicyclo[2.2.1]-5-heptene-2-ylmethyl)-2,4-dioxo-5-phenyl-2,3,4,5-tetrahydro-1H-1,5-benzodiazepin-3-yl]-N'-phenylurea], in data set [2], the “pKi CCK-A” value was determined as 6.76. Same read-out and setting: to `O=C(Nc1cccc([N+](=O)[O-])c1)NC1C(=O)N(CC23CC4CC(CC(C4)C2)C3)c2ccccc2N(c2ccccc2)C1=O` (centres unmarked) [Example 39, N-[1-(1-Adamantylmethyl)-2,4-dioxo-5-phenyl-2,3,4,5-tetrahydro-1H-1,5-benzodiazepin-3-yl]-N'-(3-nitrophenyl)urea] belongs 6.52; to `CCOC(=O)c1cccc(NC(=O)NC2C(=O)N(CC34CC5CC(CC(C5)C3)C4)c3ccccc3N(c3ccccc3)C2=O)c1` (centres unmarked) [Example 41, N-[1-(1-Adamantylmethyl)-2,4-dioxo-5-phenyl-2,3,4,5-tetrahydro-1H-1,5-benzodiazepin-3-yl]-N'-(3-ethoxycarbonylphenyl)urea], 6.09.
